Assay results as given in US20200325154A1, “ANTIBACTERIAL BIAROMATIC DERIVATIVES WITH OXETANE-3-YLOXY SUBSTITUTION” (priority 2016, published 2020).
In brackets after ≈: the same amount, converted by molar mass.

Tests used:
Assay in all cases: Bacterial growth minimal inhibitory concentration (microdilution, cation-adjusted Mueller-Hinton Broth)
E. faecalis ATCC 29212 = assay type: cell-based, Enterococcus faecalis; details: quinolone-sensitive strain; for MIC: Enterococcus faecalis, ATCC29212, Table 1
Description: (§1) Minimal Inhibitory Concentrations (MICs; mg/L) were determined in cation-adjusted Mueller-Hinton Broth by a microdilution method following the description given in “Methods for Dilution Antimicrobial Susceptibility Tests for Bacteria that Grow Aerobically”, Approved standard, 7^1 ed., Clinical and Laboratory Standards Institute (CLSI) Document M7-A7, Wayne, Pa., USA (2006).
(§2) All Example compounds were tested against relevant Gram positive and Gram negative bacteria. […] Staphylococcus aureus A798 and Acinetobacter baumannii T6474 are multiply-resistant strains (in particular quinolone-resistant), whereas Moraxella catarrhalis A894 and Enterococcus faecalis ATCC29212 are quinolone-sensitive strains.

M. catarrhalis A894 = assay type: cell-based, Moraxella catarrhalis; details: quinolone-sensitive strain; for MIC: Moraxella catarrhalis, A894, Table 1
Description: as §1, §2

S. aureus A798 = assay type: cell-based, Staphylococcus aureus; details: for MIC: Staphylococcus aureus, A798, Table 1, multiply-resistant (quinolone-resistant) strain
Description: as §1, §2

A. baumannii T6474 = assay type: cell-based, Acinetobacter baumannii; details: for MIC: Acinetobacter baumannii, T6474, Table 1, multiply-resistant (quinolone-resistant) strain
Description: as §1, §2

[1] = Table 2, comparison with Example 50 of WO 2014/170821
[2] = Table 2, comparison with Example 50 of WO 2014/170821, multiply-resistant strain

In the case of `O=C1COc2ccc(N3C[C@H](CCNCc4cc(-c5cc(OC6COC6)cnn5)ccn4)OC3=O)nc2N1` [Example 5, 6-{(S)-5-[2-({4-[5-(oxetan-3-yloxy)-pyridazin-3-yl]-pyridin-2-ylmethyl}-amino)-ethyl]-2-oxo-oxazolidin-3-yl}-4H-pyrido[3,2-b][1,4]oxazin-3-one], the MIC (E. faecalis ATCC 29212) is reported as 8 µg/mL (≈ 15.4 µM), the MIC (M. catarrhalis A894) is reported as 0.5 µg/mL (≈ 0.962 µM) and the MIC (S. aureus A798) is reported as 8 µg/mL (≈ 15.4 µM). It also gave an MIC (A. baumannii T6474) of 8 µg/mL (≈ 15.4 µM).
`O=C1COc2ccc(-n3cc(CCNCc4cc(-c5cncc(OC6COC6)n5)ccn4)oc3=O)nc2N1` [Example 2, 6-{5-[2-({4-[6-(oxetan-3-yloxy)-pyrazin-2-yl]-pyridin-2-ylmethyl}-amino)-ethyl]-2-oxo-oxazol-3-yl}-4H-pyrido[3,2-b][1,4]oxazin-3-one] was tested, and the MIC (E. faecalis ATCC 29212) was 0.25 µg/mL (≈ 0.483 µM), the MIC (M. catarrhalis A894) was no more than 0.031 µg/mL and the MIC (S. aureus A798) was no more than 0.031 µg/mL. For the same compound, the MIC (A. baumannii T6474) was 0.125 µg/mL (≈ 0.242 µM).
`O=C1COc2ccc(N3C[C@@H](CCNCc4cc(-c5nccc(OC6COC6)n5)ccn4)OC3=O)nc2N1` [Example 10, 6-{(R)-5-[2-({4-[4-(oxetan-3-yloxy)-pyrimidin-2-yl]-pyridin-2-ylmethyl}-amino)-ethyl]-2-oxo-oxazolidin-3-yl}-4H-pyrido[3,2-b][1,4]oxazin-3-one] showed an MIC (E. faecalis ATCC 29212) of 0.5 µg/mL (≈ 0.962 µM), an MIC (M. catarrhalis A894) of 0.063 µg/mL (≈ 0.121 µM) and an MIC (S. aureus A798) of 0.25 µg/mL (≈ 0.481 µM). For the same compound, the MIC (A. baumannii T6474) was 0.25 µg/mL (≈ 0.481 µM).
Work on `O=C1COc2ccc(N3C[C@H](CCNCc4cc(-c5cncc(OC6COC6)n5)c(O)cn4)OC3=O)nc2N1` [Example 14, 6-{(S)-5-[2-({5-hydroxy-4-[6-(oxetan-3-yloxy)-pyrazin-2-yl]-pyridin-2-ylmethyl}-amino)-ethyl]-2-oxo-oxazolidin-3-yl}-4H-pyrido[3,2-b][1,4]oxazin-3-one] yielded an MIC (E. faecalis ATCC 29212) of 4 µg/mL (≈ 7.47 µM), an MIC (M. catarrhalis A894) of 0.5 µg/mL (≈ 0.934 µM) and an MIC (S. aureus A798) of 1 µg/mL (≈ 1.87 µM). For the same compound, the MIC (A. baumannii T6474) was 4 µg/mL (≈ 7.47 µM).
In the case of `O=C1COc2ccc(N3C[C@H](CCNCc4ccnc(-c5cncc(OC6COC6)n5)c4)OC3=O)nc2N1` [Example 7, 6-{(S)-5-[2-({2-[6-(oxetan-3-yloxy)-pyrazin-2-yl]-pyridin-4-ylmethyl}-amino)-ethyl]-2-oxo-oxazolidin-3-yl}-4H-pyrido[3,2-b][1,4]oxazin-3-one], the MIC (E. faecalis ATCC 29212) is reported as 0.5 µg/mL (≈ 0.962 µM), the MIC (M. catarrhalis A894) is reported as no more than 0.031 µg/mL and the MIC (S. aureus A798) is reported as no more than 0.031 µg/mL. It also gave an MIC (A. baumannii T6474) of 0.5 µg/mL (≈ 0.962 µM).
`O=C1COc2ccc(N3C[C@H](CCNCc4cc(-c5cncc(OC6COC6)n5)ccn4)OC3=O)nc2N1` [Example 1, 6-{(S)-5-[2-({4-[6-(oxetan-3-yloxy)-pyrazin-2-yl]-pyridin-2-ylmethyl}-amino)-ethyl]-2-oxo-oxazolidin-3-yl}-4H-pyrido[3,2-b][1,4]oxazin-3-one] showed an MIC (E. faecalis ATCC 29212) of 0.25 µg/mL (≈ 0.481 µM), an MIC (M. catarrhalis A894) of no more than 0.031 µg/mL and an MIC (S. aureus A798) of no more than 0.031 µg/mL. It also gave an MIC (A. baumannii T6474) of 0.125 µg/mL (≈ 0.241 µM).
For `O=C1CSc2ccc(N3C[C@H](CCNCc4cc(-c5nccc(OC6COC6)n5)ccn4)OC3=O)cc2N1` [Example 12, 6-{(S)-5-[2-({4-[4-(oxetan-3-yloxy)-pyrimidin-2-yl]-pyridin-2-ylmethyl}-amino)-ethyl]-2-oxo-oxazolidin-3-yl}-4H-benzo[1,4]thiazin-3-one], the MIC (E. faecalis ATCC 29212) was 0.25 µg/mL (≈ 0.468 µM), the MIC (M. catarrhalis A894) was no more than 0.031 µg/mL and the MIC (S. aureus A798) was no more than 0.031 µg/mL. For the same compound, the MIC (A. baumannii T6474) was 0.25 µg/mL (≈ 0.468 µM).
For `O=C1CSc2ccc(N3C[C@H](CCNCc4cc(-c5nccc(OC6COC6)n5)ccn4)OC3=O)nc2N1` [Example 11, 6-{(S)-5-[2-({4-[4-(oxetan-3-yloxy)-pyrimidin-2-yl]-pyridin-2-ylmethyl}-amino)-ethyl]-2-oxo-oxazolidin-3-yl}-4H-pyrido[3,2-b][1,4]thiazin-3-one], the MIC (E. faecalis ATCC 29212) was 0.125 µg/mL (≈ 0.233 µM), the MIC (M. catarrhalis A894) was no more than 0.031 µg/mL and the MIC (S. aureus A798) was no more than 0.031 µg/mL. It also gave an MIC (A. baumannii T6474) of 0.125 µg/mL (≈ 0.233 µM).
In the case of `O=C1COc2ccc(N3C[C@H](CCNCc4cccc(-c5cccc(OC6COC6)n5)c4)OC3=O)nc2N1` [Example 6, 6-[(S)-5-(2-{3-[6-(oxetan-3-yloxy)-pyridin-2-yl]-benzylamino}-ethyl)-2-oxo-oxazolidin-3-yl]-4H-pyrido[3,2-b][1,4]oxazin-3-one], the MIC (E. faecalis ATCC 29212) is reported as 0.25 µg/mL (≈ 0.483 µM), the MIC (M. catarrhalis A894) is reported as no more than 0.031 µg/mL and the MIC (S. aureus A798) is reported as no more than 0.031 µg/mL. The MIC (A. baumannii T6474) was 0.25 µg/mL (≈ 0.483 µM).
In the case of `O=C1COc2ccc(N3C[C@H](CCNCc4cccc(-c5cc(OC6COC6)cnn5)c4)OC3=O)nc2N1` [Example 8, 6-[(S)-5-(2-{3-[5-(oxetan-3-yloxy)-pyridazin-3-yl]-benzylamino}-ethyl)-2-oxo-oxazolidin-3-yl]-4H-pyrido[3,2-b][1,4]oxazin-3-one], the MIC (E. faecalis ATCC 29212) is reported as 4 µg/mL (≈ 7.71 µM), the MIC (M. catarrhalis A894) is reported as 0.25 µg/mL (≈ 0.482 µM) and the MIC (S. aureus A798) is reported as 0.5 µg/mL (≈ 0.964 µM). It also gave an MIC (A. baumannii T6474) of 1 µg/mL (≈ 1.93 µM).
In the case of `O=C1COc2ccc(N3C[C@H](CCNCc4cccc(-c5cccc(OC6COC6)c5)c4)OC3=O)nc2N1` [Example 9, 6-[(S)-5-(2-{[3′-(oxetan-3-yloxy)-biphenyl-3-ylmethyl]-amino}-ethyl)-2-oxo-oxazolidin-3-yl]-4H-pyrido[3,2-b][1,4]oxazin-3-one], the MIC (E. faecalis ATCC 29212) is reported as 0.5 µg/mL (≈ 0.968 µM), the “MIC for E. faecalis ATCC 29212” value (E. faecalis ATCC 29212; [1]) is reported as 0.5 µg/mL and the MIC (M. catarrhalis A894) is reported as no more than 0.031 µg/mL. For the same compound, the “MIC for M. catarrhalis A894” value (M. catarrhalis A894; [1]) was no more than 0.031 µg/mL, the MIC (S. aureus A798) was 0.125 µg/mL (≈ 0.242 µM) and the “MIC for S. aureus A798” value (S. aureus A798; [2]) was 0.125 µg/mL. The MIC (A. baumannii T6474) was 1 µg/mL (≈ 1.94 µM) and the “MIC for A. baumannii T6474” value (A. baumannii T6474; [2]) was 1 µg/mL.
`O=C1COc2ccc(N3C[C@H](CCNCc4nccc(-c5cncc(OC6COC6)n5)c4O)OC3=O)nc2N1` [Example 16, 6-{(S)-5-[2-({3-Hydroxy-4-[6-(oxetan-3-yloxy)-pyrazin-2-yl]-pyridin-2-ylmethyl}-amino)-ethyl]-2-oxo-oxazolidin-3-yl}-4H-pyrido[3,2-b][1,4]oxazin-3-one] gave an MIC (E. faecalis ATCC 29212) of 2 µg/mL (≈ 3.73 µM), an MIC (M. catarrhalis A894) of 0.25 µg/mL (≈ 0.467 µM) and an MIC (S. aureus A798) of 0.25 µg/mL (≈ 0.467 µM). For the same compound, the MIC (A. baumannii T6474) was 1 µg/mL (≈ 1.87 µM).
With `O=C1COc2ccc(-n3cc(CCNCc4cc(-c5nccc(OC6COC6)n5)ccn4)oc3=O)nc2N1` [Example 13, 6-{5-[2-({4-[4-(oxetan-3-yloxy)-pyrimidin-2-yl]-pyridin-2-ylmethyl}-amino)-ethyl]-2-oxo-oxazol-3-yl}-4H-pyrido[3,2-b][1,4]oxazin-3-one] the MIC (E. faecalis ATCC 29212) was 0.5 µg/mL (≈ 0.966 µM), the MIC (M. catarrhalis A894) was no more than 0.031 µg/mL and the MIC (S. aureus A798) was no more than 0.031 µg/mL. For the same compound, the MIC (A. baumannii T6474) was 0.125 µg/mL (≈ 0.242 µM).
Work on `O=C1COc2ccc(N3C[C@H](CCNCc4cc(-c5cc(OC6COC6)ccn5)ccn4)OC3=O)nc2N1` [Example 3, 6-[(S)-5-(2-{[4-(oxetan-3-yloxy)-[2,4′]bipyridinyl-2′-ylmethyl]-amino}-ethyl)-2-oxo-oxazolidin-3-yl]-4H-pyrido[3,2-b][1,4]oxazin-3-one] yielded an MIC (E. faecalis ATCC 29212) of 1 µg/mL (≈ 1.93 µM), an MIC (M. catarrhalis A894) of 0.25 µg/mL (≈ 0.482 µM) and an MIC (S. aureus A798) of 1 µg/mL (≈ 1.93 µM). For the same compound, the MIC (A. baumannii T6474) was 1 µg/mL (≈ 1.93 µM).
Compound `O=C1COc2ccc(N3C[C@H](CCNCc4cc(-c5nccc(OC6COC6)n5)ccn4)OC3=O)nc2N1` [Example 4, 6-{(S)-5-[2-({4-[4-(oxetan-3-yloxy)-pyrimidin-2-yl]-pyridin-2-ylmethyl}-amino)-ethyl]-2-oxo-oxazolidin-3-yl}-4H-pyrido[3,2-b][1,4]oxazin-3-one] has an MIC (E. faecalis ATCC 29212) of 0.25 µg/mL (≈ 0.481 µM), an MIC (M. catarrhalis A894) of no more than 0.031 µg/mL and an MIC (S. aureus A798) of no more than 0.031 µg/mL. For the same compound, the MIC (A. baumannii T6474) was 0.125 µg/mL (≈ 0.241 µM).
`O=C1COc2ccc(N3C[C@H](CCNCc4cc(-c5nccc(OC6COC6)n5)c(O)cn4)OC3=O)nc2N1` [Example 15, 6-{(S)-5-[2-({5-hydroxy-4-[4-(oxetan-3-yloxy)-pyrimidin-2-yl]-pyridin-2-ylmethyl}-amino)-ethyl]-2-oxo-oxazolidin-3-yl}-4H-pyrido[3,2-b][1,4]oxazin-3-one] gave an MIC (E. faecalis ATCC 29212) of 0.25 µg/mL (≈ 0.467 µM), an MIC (M. catarrhalis A894) of no more than 0.031 µg/mL and an MIC (S. aureus A798) of no more than 0.031 µg/mL. The MIC (A. baumannii T6474) was 0.25 µg/mL (≈ 0.467 µM).
